# According to US9376376B2, “Substitute diphenylamine compounds use thereof as antitumor agents” (SINOCHEM CORPORATION, priority 2012, dated 2016):
# What was measured:
# lung cancer A549 cell = assay: In vitro cell inhibition assay (MTT method), A549; format: cell-based, human; conditions: 48 h incubation
# Procedure: (§1) The human cancer cell lines used for this assay were lung cancer A549 and leukemia HL-60.
# (§2) The A549 or HL-60 cells were picked up from cell incubator, after washed for twice using PBS, cells were digested by 0.25% trypsin, and then add medium to terminate the digestion. After cells were collected using centrifuge and re-suspended, count cells under inverted microscope and add medium to make a density was 5×10^4 cells/mL. After 100 μL aliquots were added to each well of 96-well microtiter plates, cells were cultured in 5% incubator for overnight at 37° C., then the different concentration compounds were added to each well. After incubation for 48 h, MTT solution was added to each well and plates were then incubated for 4 h. The MTT tetrazolium was reduced to formazan by living cells. Then the formazan crystals were dissolved though adding DMSO to each well. The absorbance was read at 570 nm with a microplate reader.
# leukemia HL-60 cells = assay: In vitro cell inhibition assay (MTT method), HL-60; format: cell-based, human; conditions: 48 h
# Procedure: as §1, §2
SMILES,Proliferation inhibitory effect of the compounds on A549 cell (% of Control) (lung cancer A549 cell; 0.01 μM),Proliferation inhibitory effect of the compounds on A549 cell (% of Control) (lung cancer A549 cell; 0.1 μM),Proliferation inhibitory effect of the compounds on A549 cell (% of Control) (lung cancer A549 cell; 1 μM),Proliferation inhibitory effect of the compounds on A549 cell (% of Control) (lung cancer A549 cell; 10 μM),Proliferation inhibitory effect of the compounds on A549 cell (% of Control) (lung cancer A549 cell; 100 μM),Proliferation inhibitory effect of the compounds on HL-60 cells (% of Control) (leukemia HL-60 cells; concentration 0.01 μM),Proliferation inhibitory effect of the compounds on HL-60 cells (% of Control) (leukemia HL-60 cells; concentration 0.1 μM),Proliferation inhibitory effect of the compounds on HL-60 cells (% of Control) (leukemia HL-60 cells; concentration 1 μM),Proliferation inhibitory effect of the compounds on HL-60 cells (% of Control) (leukemia HL-60 cells; concentration 10 μM),Proliferation inhibitory effect of the compounds on HL-60 cells (% of Control) (leukemia HL-60 cells; concentration 100 μM)
N#Cc1c(Cl)c(Cl)c(Nc2c(Cl)cc([N+](=O)[O-])cc2Br)c(C#N)c1Cl [Compound 6-113],9.2 % of Control,2.9 % of Control,2.6 % of Control,75.6 % of Control,93.7 % of Control,−3.8 % of Control,8.8 % of Control,9.3 % of Control,85.4 % of Control,93.1 % of Control
N#Cc1c(Cl)c(Cl)c(Nc2ccc(Cl)cc2Cl)c(C#N)c1Cl [Compound 6-39],18.3 % of Control,18.8 % of Control,19.6 % of Control,24.9 % of Control,92.6 % of Control,11.9 % of Control,14.7 % of Control,31.0 % of Control,78.5 % of Control,80.8 % of Control
Cc1c(Cl)c([N+](=O)[O-])cc([N+](=O)[O-])c1Nc1c(F)cc(Cl)cc1F [Compound 22-93],−2.2 % of Control,−1.8 % of Control,−0.2 % of Control,73.7 % of Control,91.4 % of Control,−3.6 % of Control,−7.1 % of Control,6.8 % of Control,70.4 % of Control,95.4 % of Control
N#Cc1c(Cl)c(Cl)c(Nc2cc(C(F)(F)F)ccc2F)c(C#N)c1Cl [Compound 6-35],0.5 % of Control,−0.8 % of Control,1.0 % of Control,58.6 % of Control,92.7 % of Control,−8.3 % of Control,−5.0 % of Control,−1.8 % of Control,72.3 % of Control,89.9 % of Control
Cc1c(Cl)c([N+](=O)[O-])cc([N+](=O)[O-])c1Nc1c(Cl)cc(Cl)cc1C#N [Compound 22-120],0.8 % of Control,0 % of Control,9.8 % of Control,86.8 % of Control,92.1 % of Control,9.6 % of Control,20.5 % of Control,19.7 % of Control,63.1 % of Control,61.0 % of Control
